For 6 molecules, IC50, Ki and Kd results are on record in ChEMBL document CHEMBL1130507, “Synthesis and evaluation of benzophenone-based photoaffinity labeling analogs of prenyl pyrophosphates containing stable amide linkages” (Bioorg Med Chem Lett, 1997).

SMILES strings stand for the structures.

For this assay, the target named is T1, Farnesyltransferase (Saccharomyces cerevisiae S288c, UniProt P22007+P29703).
T1 sequence (P29703 whole entry): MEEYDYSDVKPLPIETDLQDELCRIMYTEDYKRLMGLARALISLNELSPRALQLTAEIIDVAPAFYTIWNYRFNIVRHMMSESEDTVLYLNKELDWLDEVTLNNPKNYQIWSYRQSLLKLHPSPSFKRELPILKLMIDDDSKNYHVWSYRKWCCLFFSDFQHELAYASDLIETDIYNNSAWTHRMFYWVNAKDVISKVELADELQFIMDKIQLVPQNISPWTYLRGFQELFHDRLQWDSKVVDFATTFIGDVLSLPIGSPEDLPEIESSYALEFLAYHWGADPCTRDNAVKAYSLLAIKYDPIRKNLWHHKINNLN
T1 sequence (P22007 whole entry): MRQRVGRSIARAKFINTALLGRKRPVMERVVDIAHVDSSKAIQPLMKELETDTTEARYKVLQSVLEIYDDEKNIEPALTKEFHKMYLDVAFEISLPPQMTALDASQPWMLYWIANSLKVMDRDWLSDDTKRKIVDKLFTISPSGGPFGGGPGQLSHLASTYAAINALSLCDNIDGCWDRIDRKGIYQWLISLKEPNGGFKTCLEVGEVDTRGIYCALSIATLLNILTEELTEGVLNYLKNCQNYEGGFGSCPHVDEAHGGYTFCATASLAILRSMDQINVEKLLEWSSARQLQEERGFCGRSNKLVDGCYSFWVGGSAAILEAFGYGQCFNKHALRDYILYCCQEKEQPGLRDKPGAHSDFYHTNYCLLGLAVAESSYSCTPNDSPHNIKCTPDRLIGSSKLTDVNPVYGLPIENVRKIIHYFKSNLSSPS
Put plainly: Inhibition of yeast Farnesyl transferase. The class given is protein-complex assay.

`C/C(=C\COP(=O)(O)OP(=O)(O)O)CC/C=C(\C)COC(=O)c1cccc(C(=O)c2ccccc2)c1`: the IC50 is 2.3 µM and the Ki was 380 nM.
In the case of `C/C(=C\COP(=O)(O)OP(=O)(O)O)COC(=O)c1cccc(C(=O)c2ccccc2)c1`, the IC50 worked out at 2 µM and the Ki was found to be 960 nM.
`C/C(=C\COP(=O)(O)OP(=O)(O)O)CC/C=C(\C)CNC(=O)c1cccc(C(=O)c2ccccc2)c1` showed a concentration for half-maximal inhibition (IC50) of 3.7 µM and a Ki of 700 nM.
As for `C/C(=C\COP(=O)(O)OP(=O)(O)O)CC/C=C(\C)CN1C(=O)c2ccccc2C1=O`, the IC50 turned out to be 10 µM.
In turn, `C/C(=C\COP(=O)(O)OP(=O)(O)O)CNC(=O)c1cccc(C(=O)c2ccccc2)c1` came in with an IC50 of 37 µM and a Ki of 6000 nM.
On to `CC(C)=CCC/C(C)=C/CC/C(C)=C/CO[P@@](=O)(O)OP(=O)(O)O` [FARNESYL DIPHOSPHATE], for which the dissociation constant (Kd) stood at 75 nM.
